The subject of one series is Adenosine transporter. In words: in vitro inhibition, adenosine transporter. As to conditions: conc: 10 μM. Format: binding.
The subject of series [1] is apomorphine-induced stereotyped behavior. In words: apomorphine-induced stereotypy. It is filed as in vivo, CD1 mice. As to conditions: Mus musculus, read-out: Stereotypy ED50 (mg/kg po.). The source says:
Anti-apomorphine effects were investigated in the climbing test in mice mediated through the mesolimbic and stereotypy test in rats mediated through the nigrostriatal system. Conventional antipsychotics antagonize both apomorphine-induced behaviours, while known atypical antipsychotics are weaker against apomorphine stereotypy.
Apomorphine-induced stereotypy was investigated according to Costall and Naylor (B. Costall and R. J. Naylor, Eur. J. Pharmacol. 1972, 18, 95) in male CD1 mice of 20-25 g body weight after 16 hours deprivation of food. 30 min before treatment mice were individually placed into small, transparent acrylic cages for habituation. Test substances were administered orally in a volume of 0.1 ml/10 g. 30 min later mice were treated with apomorphine HCl (SIGMA) in a subcutaneous dose of 2 mg/kg. […] The scores were summed individually, meaned and compared to the control group. The ED50 values were calculated by Litchfield-Wilcoxon's method (J. Pharmacol. Exp. Ther. 1949, 96, 49,).

Series [2] relates to PCP-induced hypermotility. In words: PCP-induced hypermotility (motor activity meter) in mice. It is filed as in vivo. As to conditions: Mus musculus, read-out: PCP-hypermotility ED50 mg/kg po. The source says:
(§1) Alterations in the mesocortical dopaminergic tract are thought to be responsible for the negative symptoms of schizophrenia (flattening of affect, poverty of speech, lack of volition and drive, loss of feeling, social withdrawal and decreased spontaneous movement). The best animal model of these symptoms is the behavioral changes induced by PCP (phencyclidine). The PCP-induced stereotypy and hypermotility was investigated in mice according to Ljungberg and Ungerstedt (Ljungberg, T., Ungerstedt, U. Pharmacol. Biochem. Behav., 1985, 23, 479,) and Jawitt (Jawitt, D. C. Amer. J. Psychiatry, 1991, 145, 1301). The stereotypy experiments were carried out in male CD1 mice weighing 20-25 g. The animals were starved for 16 hours before treatment without limitation of water availability. In the stereotypy studies, 30 min before treatment, mice were individually placed into small, transparent acrylic cages for habituation. Test substances were administered orally in a volume of 0.1 ml/10 g. 30 min later mice were treated with PCP with an intraperitoneal dose of 7 mg/kg. Stereotyped behavior was observed every 5th min for 60 min and scored from 0 to 4. The scores were summed individually, averaged and compared to the control group.
The motor activity was measured in a 4-channel activity meter. The apparatus consisted of acrylic cages (40×40×32 cm) equipped with 16 pairs of infrared photocells. The photocells' beam, when broken, signaled a count, which was then recorded by a computer. A 5 mg/kg intraperitoneal dose of PCP was administered 5 min before the experiment. This dose of PCP induces 110-120% increase of the spontaneous motor activity. Test substances were administered orally 15 min before experiment, and mice were investigated individually in the experimental cages for 60 min. 10 mice/group were used. The total counts for each experimental group were compared to the vehicle treated control group.
(§2) In both studies the ED50 values were calculated by the Litchfield-Wilcoxon's method (J. Pharmacol. Exp. Ther. 1949, 96, 49).

In another series the test system is PCP-induced stereotypy. In words: PCP-induced stereotypy in mice. Conditions: Mus musculus, read-out: PCP-stereotypy ED50 mg/kg po. Format: in vivo, CD1 mice.
Excerpt: as §1, §2

The target of another series is T1, Melatonin (MT2) receptor (Homo sapiens, UniProt P49286).
T1 sequence (P49286 1-362): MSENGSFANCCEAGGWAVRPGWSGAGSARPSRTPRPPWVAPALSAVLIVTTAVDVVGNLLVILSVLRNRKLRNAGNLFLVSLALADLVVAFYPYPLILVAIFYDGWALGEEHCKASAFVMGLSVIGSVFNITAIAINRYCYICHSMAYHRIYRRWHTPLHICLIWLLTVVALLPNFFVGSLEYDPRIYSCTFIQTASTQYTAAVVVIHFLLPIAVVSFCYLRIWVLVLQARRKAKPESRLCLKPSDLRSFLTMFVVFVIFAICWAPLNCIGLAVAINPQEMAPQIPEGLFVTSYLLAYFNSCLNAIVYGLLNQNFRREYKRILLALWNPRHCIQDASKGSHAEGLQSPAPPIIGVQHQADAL
In words: in vitro inhibition, melatonin (MT2) receptor. It is filed as binding. As to conditions: conc: 10 μM.

Another series relates to catalepsy. In words: catalepsy test in rats. It is filed as in vivo, CDBR rats. As to conditions: sum of 8 readings over 4 hours. The source says:
In order to investigate the potential side effect profile, the catalepsy test in rats has been carried out according to Costall and Naylor (Costall, B., Naylor, R. J. Arzneimittelforschung/Drug Res., 1973, 23, 674).
Catalepsy is defined as a failure to correct an externally imposed, unusual posture over a prolonged time. Neuroleptics which have direct inhibitory action on the nigrostriatal dopamine system induce catalepsy. It may be reflected by the Parkinson-like extrapyramidal symptoms seen clinically with administration of classical antipsychotics. The experiments were carried out in male CDBR rats weighing 300-400 g. The volume of administration was 0.25 ml/100 g body weight. The animals were starved for 16 hours before treatment, water was delivered ad libitum. After intraperitoneal administration of the test substances, the forepaws of the rats were placed on a horizontal stainless steel bar elevated to 10 cm high, while the hind paws remained on a metal plate. The semi-automatic 5-channel catalepsy meter measured the time spent in this unusual posture by an electronic stop-clock. The catalepsy time was scored from 0 to 5 according to the time spent in the unusual posture. […] Means of groups were calculated.

Series [3] has as its system DOPA accumulation in eminentia mediana. In words: DOPA accumulation in eminentia mediana after NSD-1015. Format: in vivo, Sprague-Dawley rats. As to the method: Acute administration of atypical antipsychotics results in enhanced accumulation of dihydroxyphenylalanine (DOPA) in the […] after the inhibition of DOPA decarboxylase. In contrast, DOPA accumulation is not altered by the typical antipsychotics (Andersson, G, Albinsson, A, Pettersson, G, Arzneimittelforschung. 1990, 40, 237; Gudelsky, G. A., Meltzer, H. Y. Neuropsychopharmacology, 1989, 2, 45). The effect of the compound of Example 121 on DOPA-accumulation was measured by analyzing the levels of DOPA in […]. […] (EM), were dissected out from the brains on ice-cold plates and kept at -70° C. until they were assayed for DOPA by HPL-EC. Statistical analysis was carried out using one-way ANOVA followed by Duncan test.

Series [4] has as its system PCP-induced disruption of PPI. In words: PCP-induced disruption of pre-pulse inhibition (PPI).
Excerpt: Male C57B1/6J mice from Jackson Laboratories (Bar Harbor, Me.) were used in this study. Mice were received at 6-weeks of age. Upon receipt, mice were assigned unique identification numbers (tail marked) and were group housed in OPTImice cages. All animals remained housed in groups of four during the remainder of the study. […] During the period of acclimation, mice were examined on a regular basis, handled, and weighed to assure adequate health and suitability. Mice were maintained on a 12/12 light/dark cycle with the light on at 6:00 a.m. The room temperature was maintained between 20 and 23° C. with a relative humidity maintained between 30% and 70%. Food and water were provided ad libitum for the duration of the study. In each test, animals were randomly assigned across treatment groups.
All compounds were injected i.p. at a dose volume of 10 ml/kg. […] Phenylcyclohexylpiperidine (PCP) (8 mg/kg) was dissolved in sterile water.
The acoustic startle measured an unconditioned reflex response to external auditory stimulation. […] Mice were placed in the PPI chambers (Med Associates) for a 5 min session of white noise (70 dB) habituation.
After the acclimation period the test session was automatically started. The session started with a habituation block of 6 presentations of the startle stimulus alone, followed by 10 PPI blocks of 6 different types of trials. Trial types are: null (no stimuli), startle (120 dB), startle plus prepulse (4, 8 and 12 dB over background noise i.e. 74, 78 or 82 dB) and prepulse alone (82 dB). Trial types were presented at random within each block.
Each trial started with a 50 ms null period during which baseline movements were recorded. There was a subsequent 20 ms period during which prepulse stimuli were presented and responses to the prepulse measured. After further 100 ms the startle stimuli were presented for 40 ms and responses recorded for 100 ms from startle onset. Responses were sampled every ms. The inter-trial interval was variable with an average of 15 s (range from 10 to 20 s). In startle alone trials the basic auditory startle was measured and in prepulse plus startle trials the amount of inhibition of the normal startle was determined and expressed as a percentage of the basic startle response (from startle alone trials), excluding the startle response of the first habituation block.
Data were analyzed by analysis of variance (ANOVA) followed by post-hoc comparisons with Fisher Tests when appropriate. An effect was considered significant if p<0.05. Data are represented as the mean and standard error to the mean.
Where [5] appears, read: mice, po. 30 min before apomorphine 2 mg/kg s.c.
[6] abbreviates: mice, po. 15 min before experiment, PCP 5 mg/kg ip.
The mark [7] stands for this setting: mice, po. 30 min before PCP 7 mg/kg ip.

Like-named read-outs stand apart in the source and are kept apart here.

As for `COc1cc2c(cc1OC)C(c1ccc(N)c(C)c1)=NN(c1ncon1)[C@H](C)C2` [Example 104], the “Inhibition in %, Adenosine transporter” value in the series with Adenosine transporter is given as 96%. Further, the figures for the ED50 (in series [1] (setting [5]); in [2] (setting [6]); in the series with PCP-induced stereotypy (setting [7])) were 6.97 mg/kg, 0.73 mg/kg and 1.12 mg/kg, respectively. In addition, at Melatonin (MT2) receptor, the inhibition at 10 µM amounted to 80%. Also, in the series with catalepsy (dose 40 mg/kg ip), the Catalapsy scores is 40:0.
`COc1cc2c(cc1OC)C(c1ccc(N)c(C)c1)=NN(c1nncs1)[C@H](C)C2` [Example 110]: the melting point amounted to 143 °C. Also, the “Inhibition in %, Adenosine transporter” value with Adenosine transporter was determined as 94%. Besides, the ED50 in series [1] (setting [5]) was found to be 3.5 mg/kg. For the same compound, the ED50 in series [2] (setting [6]) came out at 1.4 mg/kg. Further, the ED50 in the series with PCP-induced stereotypy (setting [7]) is 2.38 mg/kg. The same compound displayed an inhibition at 10 µM on Melatonin (MT2) receptor of 95%. Also, the Catalapsy scores in the series on catalepsy (dose 10 mg/kg ip) is on record as 10:0.375.
As to `CNC(=O)N1N=C(c2ccc(N)cc2)c2cc(OC)c(OC)cc2C[C@H]1C` [Example 121], the melting point lay within 140 to 144 °C. In the series on Adenosine transporter, the “Inhibition in %, Adenosine transporter” value was determined as 87%. In addition, in [1], the ED50 was 3.54 mg/kg. The ED50 in [2] came out at 0.87 mg/kg. Moreover, the “DOPA levels (pg/tissue block)” value in series [3] (rat eminentia mediana, 10 mg/kg ip, mean ± SEM) is 484 ± 34 pg/tissue block. Moreover, the “DOPA levels (pg/tissue block)” value in [3] (rat eminentia mediana, 20 mg/kg ip, mean ± SEM) came out at 652 ± 69 pg/tissue block. Besides, the “DOPA levels (pmol/mg prot)” value in series [3] (rat eminentia mediana, 40 mg/kg ip, mean ± SEM) is 94.0 ± 11.4 pmol/mg prot. The “effect on levels of DOPA in the EM of rats” value in series [3] (result in words, vs saline) is given as “significantly increased”. In addition, the ED50 in the series with PCP-induced stereotypy is 1.56 mg/kg. In series [4] (5 mg/kg i.p. (high dose)), the “sedation and lethargy in the mice” value is “caused sedation and lethargy”. For the same compound, in [4] (2.5 and 5 mg/kg i.p., PCP 8 mg/kg, C57B1/6J mice), the “reversal of PCP-induced disruption of PPI” value is “significantly reversed”. The compound also came in with an inhibition at 10 µM against Melatonin (MT2) receptor of 80%. In addition, in the series on catalepsy (dose 10 mg/kg ip), the Catalapsy scores is 10:0.
Regarding `CNC(=O)N1N=C(c2ccc(N)c(C)c2)c2cc(OC)c(OC)cc2C[C@H]1C` [Example 123], the melting point is 147 °C. In the series with Adenosine transporter, the “Inhibition in %, Adenosine transporter” value came out at 90%. Moreover, the ED50 in series [1] was 7.52 mg/kg. The ED50 in [2] turned out to be 0.62 mg/kg. Moreover, the ED50 with PCP-induced stereotypy came to 1.07 mg/kg. The inhibition at 10 µM on Melatonin (MT2) receptor is 64%. Besides, the Catalapsy scores with catalepsy (dose 40 mg/kg ip) was 40:0.

As a reminder, the inhibition is the change of the read-out against control, counted positive when it falls. As a reminder, the melting point is the temperature of the solid-liquid transition.

The values above are taken from patent publication US20080269202A1, “Novel 2,3-benzodiazepine derivatives and their use as antipsychotic agents” (Teva Pharmaceutical Industries Ltd., priority 2007, published 2008).
